Read-outs that look alike come from different tables or passages of the source.
Legend:
[1] = system: P. falciparum 3D7 (sensitive strain); assay: In vitro antimalarial activity, 3-day inhibition assay; assay type: cell-based, Plasmodium falciparum
Description: Blood stages of the laboratory clones P. falciparum 3D7 (sensitive strain), P. falciparum 803 (artemisinin-resistant strain), and P. falciparum Dd2 (chloroquine-resistant strain) were cultured in vitro according to the method of Trager and Jensens with minor modifications ([37]). Briefly, cultures were maintained in O-positive human erythrocytes (RBCs) as host cells at 2% hematocrit and maintained in complete medium (CM) [RPMI-1640 culture medium supplemented with NaHCO3 (2 mg/mL), hypoxanthine (50 µg/mL), HEPES (5.96 mg/mL), albumax II (1%), and gentamicin (40 µg/mL)]. The cultures were diluted to 1% parasitemia and 2% hematocrit in CM and incubated in a humidified atmosphere with 5% O2, 5% CO2, and 90% N2 at 37°C. Prior to experiments, the cultures were highly synchronized for ring stages using 5% sorbitol twice at a 40-h interval. Briefly, ring stage cultures were centrifuged and the pellet was washed once in incomplete medium (ICM, RPMI-1640 without addition). Then, the pellet was resuspended in 5% sorbitol and incubated at 37°C for 10 min. After incubation, the suspension was centrifuged and the pellet was washed once and resuspended in medium. The development of the parasite was observed using light microscopy, and parasitemia was determined by counting at least 10,000 RBCs on Giemsa’s solution-stained thin blood smears.
Highly synchronous ring stage parasites were used to investigate the in vitro antimalarial activity of the peptides. For preliminary screening of in vitro antimalarial activity, a 3-day inhibition assay was used to test the antimalarial activity of An-cecA, An-cecB, and An-cecC. […] For IC50 assay, a series of concentrations of peptides were added to the parasite culture. The concentrations of An-cecB were 5, 15, 20, 25, 30, 35, and 40 µM, while those of An-cecB-1 were 20, 30, 40, 50, 60, 70, 80, and 90 µM. After 72 hours of incubation, the antimalarial effects of peptides were estimated. Thin blood films stained with Giemsa’s solution were counted under a microscope. The parasitemia of cultures treated with peptides was compared with that of control. IC50 was calculated by GraphPad Prism.

Bacillus subtilis (ATCC) = assay: Antimicrobial assay, broth dilution; assay type: cell-based; conditions: B. subtilis
Description: (§1) Gram-positive bacteria S. aureus, B. subtilis, and Gram-negative E. coli were used in antimicrobial assays. Bacteria were first grown in LB (Luria-Bertani) broth to an absorbance of 0.8 at 600 nm. The antibacterial behavior of the peptides was studied via the agar disc diffusion assay and broth microdilution method ([41], [42]). The agar plates were made by pouring 20 mL of LB broth containing 1.5% agar into 60-mm Petri dishes. Then, a 100-µL bacterial suspension (10^6 CFU/mL) was spread over the LB agar plate. Ten microliters of the 2-mg/mL peptide sample was carefully dropped onto sterile 2-mm diameter paper discs that had been previously attached to the plate. The plates were carefully placed in an incubator at 37°C for 24 hours. If an examined sample had antimicrobial activity, a clear zone was observed around the filter paper representing inhibition of bacterial growth. The MIC was determined by the broth dilution method, and the absorbance value was measured at an optical density at 600 nm (OD600) to determine the inhibition rate of peptides at different concentrations against each bacteria. Then, the MIC at which no visible growth occurred was recorded ([38]). The MIC50 was calculated by GraphPad Prism.

[2] = system: Escherichia coli (ATCC 25922); assay: Antimicrobial assay, broth dilution; assay type: cell-based; conditions: E. coli
Description: as §1

[3] = system: Staphylococcus aureus (ATCC 6538); assay: Antimicrobial assay, broth dilution; assay type: cell-based; conditions: S. aureus
Description: as §1

[4] = system: Plasmodium falciparum 3D7; assay: Transmission electron microscope analysis of parasite morphology; assay type: cell-based; conditions: TEM
Description: 3D7 strain parasites with parasitemia of 3% ~ 5% at a hematocrit of 2% were planted in 12-well plates, 3 mL/well. A 40-µM concentration of An-cecB or 200 µM An-cecB-1 was added and incubated for 30 min or 60 min. PBS was used as a control.
After incubation, the parasites were washed three times with ICM, and the electron microscope fixative solution (provided by the company) was added to keep the parasites clumped for 2 hours at room temperature. Finally, the samples were sent to a commercial company at 4°C for transmission electron microscope analysis.

[5] = system: methyl-β-cyclodextrin-treated RBCs; assay: Hemolytic activity on cholesterol-depleted erythrocytes; assay type: cell-based, human; conditions: RBCs treated with 7.5 mM methyl-β-cyclodextrin for 2 hours at 37°C
Text: Cholesterol is the main component of the RBC membrane and is important for maintaining its stability ([39]). Plasmodium falciparum infection efficiently depletes the red blood cells of cholesterol, which renders […] membranes susceptible to lysis ([40]). Therefore, methyl-β-cyclodextrin treatment was used to simulate the RBC cholesterol depletion caused by infection with Plasmodium. RBCs were washed once and then resuspended with PBS at 0.5% hematocrit. After treatment with the indicated concentration (7.5 mM) of methyl-β-cyclodextrin (Sigma) in RPMI for 2 hours at 37°C, the treated RBCs were washed with PBS and hemolysis assays were performed as described above. Two independent tests with five technical replicates were performed for each hemolysis assay.

[6] = system: RBCs infected by schizonts of P. falciparum 3D7; assay: Hemolytic activity on RBCs infected by schizonts; assay type: cell-based, human; conditions: percoll-purified 3D7 schizonts, 2% hematocrit in PBS
Description: To test the hemolytic activity of the peptides against RBCs infected by Plasmodium, schizonts of the P. falciparum 3D7 strain were collected. The parasite culture of mainly schizonts was centrifuged and resuspended to 50% hematocrit. Then, the resuspended culture was carefully laid on top of the gradient with 3 mL 70% and 3 mL 40% percoll-sorbitol solution. After centrifugation at 2,300 × g for 20 min at 20°C, schizonts from the 40/70% interface were collected and washed twice with 10× volume of ICM. The collected parasites were resuspended in PBS to 2% hematocrit for hemolysis assay as described above.

[7] = system: Plasmodium berghei (ANKA); assay type: in vivo; conditions: parasitemia on day 4, BALB/c mice
Description: The in vivo antimalarial activity of peptides was evaluated using a 4-day suppressive test in P. berghei-infected mouse model mice ([44]). The mice were divided into five groups of six mice. Donor mice were infected with 200 µL of P. berghei parasite inoculum by intraperitoneal injection. Parasitized blood was collected from the tail vein of donor mice and diluted with 0.9% sodium chloride solution. Mice were then infected with saline suspension of 1 × 10^7 parasitized erythrocytes (0.2 mL) by intraperitoneal injection (Day0). Four hours after infection, each of the three groups of mice was treated with peptide by intraperitoneal injection at daily doses of 10, 25, and 50 mg/kg for 4 consecutive days. Positive control mice were treated with chloroquine at daily doses of 10 mg/kg and negative control mice with normal saline. On day 4 (96 hours post infection), the parasitemia of each mouse was determined under a light microscope by examination of Giemsa’s solution-stained thin blood smears prepared from mouse tail blood ([28]). The mean parasitemia in each group of mice was used to calculate the % suppression for each dose using the following formula:
%suppression = (parasitemia of negative control − parasitemia of test) * 100/parasitemia of negative control.
The antimalarial activity of the peptides was determined from the ratio of the percentage of parasite reduction in treated and negative control groups ([44]). Results were expressed as median (range) values.

[8] = 200 µM peptide, 3D7, Giemsa smears
[9] = 50 µM peptide, 72 h, ring stage, 1% parasitemia, 2% hematocrit, Giemsa smears
[10] = 40 µM An-cecB or 200 µM An-cecB-1, total 20 / 22

Description for HEK293T cells: The mammalian cell lines HepG2 and HEK293T were used for cytotoxicity tests. The cells were cultured in Dulbecco’s modified Eagle medium supplemented with 10% fetal bovine serum and 1% penicillin/streptomycin in an incubator at 37°C with 5% CO2. Cells were seeded at a density of 1 × 10^5 cells/mL per well into a 96-well plate overnight and treated with different concentrations of peptides for 48 hours. To analyze the CC50 of peptides, a series of concentrations of peptides (0, 5, 10, 20, 30, 40, 50, 60, and 70 µM) were set to detect their cytotoxic concentrations. Then, 10% CCK-8 solution was added into each well and incubated for another 2 hours. The absorbance was monitored by a microplate reader at 450 nm. PBS was used as a negative control and the inhibition of each drug was normalized to that of the PBS control. CC50 was calculated by GraphPad Prism. Two independent assays with three technical replicates each time were conducted.

Substance: RAAKKALPVIAGYKAL-NH2 [An-cecB-2, truncated peptide of An-cecB, posterior part]
- cytotoxicity to HEK293T cells (HEK293T cells): No cytotoxicity
- inhibition rate [1, 8]: 12.14%

Substance: RRFKKFLKKVEGAGRRVANAA QKGLPLAAGVKGL-NH2 [An-cecC]
- inhibition rate [1, 9]: 40.16%

Substance: APRWKFGKRLEKLGRNVF-NH2 [An-cecB-1, truncated peptide of An-cecB, anterior part]
- MIC (Bacillus subtilis (ATCC); OD600): 25 µM
- MIC50 (Bacillus subtilis (ATCC); OD600, GraphPad Prism): 18.94 µM
- MIC ([2]; OD600): 25 µM
- MIC50 ([2]; OD600, GraphPad Prism): 12.7 µM
- MIC ([3]; OD600): > 200 µM
- MIC50 ([3]; OD600, GraphPad Prism): > 200 µM
- cytotoxicity to HEK293T cells (HEK293T cells): No cytotoxicity
- Normal (number of parasites) ([4]; 40 µM An-cecB or 200 µM An-cecB-1, 30 or 60 min, total 20 (An-cecB), 22 (An-cecB-1)): 7
- Disintegration (number of parasites) [4, 10]: 0
- Parasite disoriented (number of parasites) [4, 10]: 0
- Parasite membrane dissolution (number of parasites) [4, 10]: 2
- Parasite shrunken (number of parasites) [4, 10]: 15
- Vacuole formation (number of parasites) [4, 10]: 7
- hemolysis of cholesterol-depleted erythrocytes [5]: no hemolysis effect
- hemolytic activity to infected erythrocytes [6]: did not
- inhibition rate [1, 8]: 83.67%
- IC50 ([1]; 3D7, 72 h incubation, Giemsa smears, GraphPad Prism, two independent assays, three technical replicates): 68.6 µM
- Inhibition (%) of P. berghei growth ([7]; 10 mg/kg daily i.p. for 4 consecutive days): 17.03%
- Inhibition (%) of P. berghei growth ([7]; 25 mg/kg daily i.p. for 4 consecutive days): 39.35%
- Inhibition (%) of P. berghei growth ([7]; 50 mg/kg daily i.p. for 4 consecutive days): 54.19%

Substance: GKRLEKLGRNVFRAAKK-NH2 [An-cecB-3, truncated peptide of An-cecB, middle part]
- cytotoxicity to HEK293T cells (HEK293T cells): No cytotoxicity
- inhibition rate [1, 8]: 24.74%

Substance: GRLKKLGKKIEGAGKRVFKAA EKALPVVAGVKAL-NH2 [An-cecA]
- inhibition rate [1, 9]: 18.7%

Reference: article PMC11232398, “Antimalarial activity of cecropin antimicrobial peptides derived from Anopheles mosquitoes” (Antimicrobial Agents and Chemotherapy, 2024)
